# Experimental data published in paper PMC7578299, “The antiviral effects of baloxavir marboxil against influenza A virus infection in ferrets” (Influenza and Other Respiratory Viruses, 2020).
# “And” between values parts separate entries of the source, which are not always exact repeats. Identical values can stand only once. Like-named read-outs stand apart in the source and are kept apart here.
# Legend:
# [1] = Stability in plasma, human; type: in vitro ADME; settings: for % Residual in plasma: BXM 200 ng/mL, 37°C, mean of duplicate; for % Residual in plasma Individual value: BXM, duplicates
# Protocol: (§1) Approximately 30 mL of blood from Japanese male healthy volunteers was collected and centrifuged to obtain plasma. Blood samples from ferrets, rats, dogs, and monkeys were collected under anesthesia and centrifuged to obtain plasma. BXM was added to reach a final concentration of 200 ng/mL to all pooled plasma samples per species. After incubation for 5, 15, and 30 minutes at 37°C, twofold volume of ice‐cold acetonitrile/methanol (1:1, v/v) was added to the plasma samples to stop further reactions, which were then centrifuged at 1800 g for 10 minutes prior to LC‐MS/MS analysis of BXM in the supernatants.
# [2] = system: Influenza A virus A/Kadoma/3/2006 (H1N1); assay: Experiment 1: infected ferrets, treatment starting at Day 1 p.i. (virus titer in nasal washes, body temperature); type: in vivo, ferret; settings: for reduction of virus titers by Day 2: treatment at Day 1 p.i.
# [3] = Stability in plasma, dog; type: in vitro ADME; settings: for % Residual in plasma: BXM 200 ng/mL, 37°C, mean of duplicate; for % Residual in plasma Individual value: BXM, duplicates
# Protocol: as §1
# [4] = Metabolic stability in liver microsomes, rat; type: in vitro ADME; settings: for % Residual in liver microsome: 0.5 mg/mL, 2 μmol/L, 37°C, mean of duplicates; for % Residual in liver microsome Individual value: duplicates
# Protocol: (§2) Liver microsomes were prepared from ferrets, rats, dogs, and monkeys, as previously described. ^28 Human liver microsomes were obtained from Sekisui‐XenoTech, LLC and pooled (n = 15). Metabolic stability of the compounds in liver microsomes was tested in duplicate. Oseltamivir and cefcapene pivoxil were used as reference compounds. Liver microsomes at 0.5 mg/mL concentration (final volume of 0.2 mL) were incubated in Tris‐HCl buffer (pH 7.4), containing 50 mmol/L Tris‐HCl, 150 mmol/L KCl, 10 mmol/L MgCl2. The hydrolysis reaction was initiated by applying the test compound solution (final concentration 2 μmol/L). After incubation for 10, 20, and 30 minutes at 37°C, the hydrolysis was terminated by the addition of twofold volume of ice‐cold acetonitrile/methanol (1:1, v/v). Samples were centrifuged at 3000 rpm for 10 minutes prior to LC‐MS/MS analysis of compounds in the supernatants.
# [5] = Stability in plasma, rat; type: in vitro ADME; settings: for % Residual in plasma: BXM 200 ng/mL, 37°C, mean of duplicate; for % Residual in plasma Individual value: BXM, duplicates
# Protocol: as §1
# [6] = Stability in plasma, ferret; type: in vitro ADME; settings: for % Residual in plasma: BXM 200 ng/mL, 37°C, mean of duplicate; for % Residual in plasma Individual value: BXM, duplicates
# Protocol: as §1
# [7] = Metabolic stability test, control (microsome free); type: in vitro ADME; settings: microsome free; for % Residual, Control (Microsome free): 2 μmol/L, 37°C, mean of duplicates; for % Residual Individual value, Control (Microsome free): duplicates
# Protocol: as §2
# [8] = Pharmacokinetic analysis in ferrets after a single oral administration of BXM; type: in vivo, ferret; settings: for concentration at 24 h: ferret, oral, read-out: C 24 h; for concentration at 24 h / AUC(0-t) / Cmax / Tmax: plasma; for AUC(0-t) / Cmax / Tmax: po
# Protocol: One day prior to administration, group assignment was carried out taking body weight into account. Under isoflurane anesthesia, fasted ferrets (four per group) received BXM (10 or 30 mg/5 mL/kg) suspension orally using an intragastric tube. Blood samples were collected at 0.5, 1, 2, 4, 6, 8, and 24 hours after single oral administration of BXM and centrifuged to obtain plasma. The concentrations of BXA and BXM in plasma were determined by liquid chromatography‐tandem mass spectrometry (LC‐MS/MS). The lower limit of quantification of BXA and BXM in ferret plasma was 0.5 ng/mL. The pharmacokinetic parameters of BXA and BXM were calculated using non‐compartmental analysis module in Phoenix WinNonlin software (version 8.0; Certara LP) (https://onlinehelp.certara.com/phoenix/8.2/topics/nca.htm) based on a non‐compartment model analysis with uniform weighting.
# [9] = Metabolic stability in liver microsomes, monkey; type: in vitro ADME; settings: monkey; for % Residual in liver microsome: 0.5 mg/mL, 2 μmol/L, 37°C, mean of duplicates; for % Residual in liver microsome Individual value: duplicates
# Protocol: as §2
# [10] = Metabolic stability in liver microsomes, dog; type: in vitro ADME; settings: for % Residual in liver microsome: 0.5 mg/mL, 2 μmol/L, 37°C, mean of duplicates; for % Residual in liver microsome Individual value: duplicates
# Protocol: as §2
# [11] = Stability in plasma, monkey; type: in vitro ADME; settings: for % Residual in plasma: BXM 200 ng/mL, 37°C, mean of duplicate; for % Residual in plasma Individual value: BXM, duplicates
# Protocol: as §1
# [12] = Metabolic stability in liver microsomes, ferret; type: in vitro ADME; settings: for % Residual in liver microsome / % Residual in liver microsome Individual value: ferret; for % Residual in liver microsome: 0.5 mg/mL, 2 μmol/L, 37°C, mean of duplicates; for % Residual in liver microsome Individual value: duplicates
# Protocol: as §2
# [13] = single oral BXM 10 mg/kg, individual ferrets (Ferret-01 to Ferret-04)
# [14] = single oral BXM 30 mg/kg, individual ferrets (Ferret-05 to Ferret-08)
smiles,measurement,setting,value
"COC(=O)OCOc1c2n(ccc1=O)N([C@@H]1c3ccccc3SCc3c1ccc(F)c3F)[C@@H]1COCCN1C2=O [BXM, Baloxavir marboxil]",% Residual in plasma,[1]; 10 min,92.3%
same,% Residual in plasma,[1]; 20 min,78.6%
same,% Residual in plasma,[1]; 30 min,63.9%
same,% Residual in plasma Individual value,[1]; 10 minutes,92.7% and 91.8%
same,% Residual in plasma Individual value,[1]; 20 minutes,80.0% and 77.1%
same,% Residual in plasma Individual value,[1]; 30 minutes,65.3% and 62.6%
same,reduction of virus titers by Day 2,[2]; BXM 10 mg/kg twice daily,≥ 3 log10 of the 50% tissue culture infective doses
same,reduction of virus titers by Day 2,[2]; BXM 30 mg/kg twice daily,≥ 3 log10 of the 50% tissue culture infective doses
same,virus titer in nasal washes,"[2]; Day 2 p.i., BXM 30 mg/kg twice daily for 1 day from Day 1 p.i., undetectable level",< 0.5 log10 TCID50/mL
same,% Residual in plasma,[3]; 10 min,91.6%
same,% Residual in plasma,[3]; 20 min,79.7%
same,% Residual in plasma,[3]; 30 min,75.6%
same,% Residual in plasma Individual value,[3]; 10 minutes,97.0% and 86.3%
same,% Residual in plasma Individual value,[3]; 20 minutes,79.0% and 80.5%
same,% Residual in plasma Individual value,[3]; 30 minutes,74.9% and 76.3%
same,% Residual in liver microsome,[4]; 10 min,25.3%
same,% Residual in liver microsome,[4]; 20 min,4.6%
same,% Residual in liver microsome,[4]; 30 min,0.6%
same,% Residual in liver microsome Individual value,[4]; 10 minutes,25.3% and 25.2%
same,% Residual in liver microsome Individual value,[4]; 20 minutes,4.9% and 4.4%
same,% Residual in liver microsome Individual value,[4]; 30 minutes,0.7% and 0.5%
same,% Residual in plasma,[5]; 10 min,0.0%
same,% Residual in plasma,[5]; 20 min,0.0%
same,% Residual in plasma,[5]; 30 min,0.0%
same,% Residual in plasma Individual value,[5]; 10 minutes,0.0%
same,% Residual in plasma Individual value,[5]; 20 minutes,0.0%
same,% Residual in plasma Individual value,[5]; 30 minutes,0.0%
same,% Residual in plasma,[6]; 10 min,94.7%
same,% Residual in plasma,[6]; 20 min,90.4%
same,% Residual in plasma,[6]; 30 min,77.4%
same,% Residual in plasma Individual value,[6]; 10 minutes,94.0% and 95.4%
same,% Residual in plasma Individual value,[6]; 20 minutes,90.0% and 90.9%
same,% Residual in plasma Individual value,[6]; 30 minutes,77.3% and 77.5%
same,"% Residual, Control (Microsome free)",[7]; 10 min,81.3%
same,"% Residual, Control (Microsome free)",[7]; 20 min,81.7%
same,"% Residual, Control (Microsome free)",[7]; 30 min,92.1%
same,"% Residual Individual value, Control (Microsome free)",[7]; 10 minutes,72.2% and 90.3%
same,"% Residual Individual value, Control (Microsome free)",[7]; 20 minutes,81.2% and 82.1%
same,"% Residual Individual value, Control (Microsome free)",[7]; 30 minutes,86.1% and 98.1%
same,concentration at 24 h,"[8]; 10 mg/kg, single oral BXM 10 mg/kg, 5% SDS water vehicle, mean of four ferrets",28.6 ± 30.4 ng/mL
same,concentration at 24 h,"[8]; 10 mg/kg, single oral BXM 10 mg/kg, mean of four ferrets",50.1 ± 53.3 nM
same,concentration at 24 h,"[8]; 30 mg/kg, single oral BXM 30 mg/kg, 5% SDS water vehicle, mean of four ferrets",36.1 ± 12.3 ng/mL
same,concentration at 24 h,"[8]; 30 mg/kg, single oral BXM 30 mg/kg, mean of four ferrets",63.1 ± 21.5 nM
same,AUC(0-t),"[8]; 10 mg/kg, single oral BXM 10 mg/kg, 5% SDS water vehicle, mean of four ferrets, read-out: AUC0-24 h",715 ± 758 ng·h/mL
same,Cmax,"[8]; 10 mg/kg, single oral BXM 10 mg/kg, 5% SDS water vehicle, mean of four ferrets, read-out: C max",165 ± 179 ng/mL
same,Tmax,"[8]; 10 mg/kg, single oral BXM 10 mg/kg, 5% SDS water vehicle, mean of four ferrets, read-out: T max",1.13 ± 0.63 h
same,AUC(0-t),"[8]; 10 mg/kg, single oral BXM 10 mg/kg, mean of four ferrets, read-out: AUC0-24 h",1.25 ± 1.33 µM·h
same,Cmax,"[8]; 10 mg/kg, single oral BXM 10 mg/kg, mean of four ferrets, read-out: C max",289 ± 312 nM
same,AUC(0-t),"[8]; 30 mg/kg, single oral BXM 30 mg/kg, 5% SDS water vehicle, mean of four ferrets, read-out: AUC0-24 h",1260 ± 150 ng·h/mL
same,Cmax,"[8]; 30 mg/kg, single oral BXM 30 mg/kg, 5% SDS water vehicle, mean of four ferrets, read-out: C max",298 ± 88 ng/mL
same,Tmax,"[8]; 30 mg/kg, single oral BXM 30 mg/kg, 5% SDS water vehicle, mean of four ferrets, read-out: T max",0.875 ± 0.25 h
same,AUC(0-t),"[8]; 30 mg/kg, single oral BXM 30 mg/kg, individual ferrets (Ferret-05 to Ferret-08), read-out: AUC0-24hr, individual data",1450 ng·h/mL
same,Cmax,"[8]; 30 mg/kg, single oral BXM 30 mg/kg, individual ferrets (Ferret-05 to Ferret-08), read-out: Cmax, individual data",392 ng/mL
same,Tmax,"[8]; 30 mg/kg, single oral BXM 30 mg/kg, individual ferrets (Ferret-05 to Ferret-08), read-out: Tmax, individual data",1 h
same,AUC(0-t),"[8]; 30 mg/kg, single oral BXM 30 mg/kg, mean of four ferrets, read-out: AUC0-24 h",2.21 ± 0.25 µM·h
same,Cmax,"[8]; 30 mg/kg, single oral BXM 30 mg/kg, mean of four ferrets, read-out: C max",522 ± 154 nM
same,C 24 h,"[8]; single oral BXM 10 mg/kg, 5% SDS water vehicle, mean of four ferrets",28.6 ng/mL
same,"AUC0-24hr, individual data",[8]; [13],174 ng·h/mL and 539 ng·h/mL and 318 ng·h/mL and 1830 ng·h/mL
same,"C24hr, individual data",[8]; [13],3.59 ng/mL and 35.0 ng/mL and 6.75 ng/mL and 69.0 ng/mL
same,"Cmax, individual data",[8]; [13],101 ng/mL and 79.2 ng/mL and 48.6 ng/mL and 431 ng/mL
same,"Tmax, individual data",[8]; [13],0.500 h and 2.00 h
same,C 24 h,"[8]; single oral BXM 30 mg/kg, 5% SDS water vehicle, mean of four ferrets",36.1 ng/mL
same,"AUC0-24hr, individual data",[8]; [14],1200 ng·h/mL and 1110 ng·h/mL and 1290 ng·h/mL
same,"C24hr, individual data",[8]; [14],22.7 ng/mL and 48.5 ng/mL and 28.7 ng/mL and 44.3 ng/mL
same,"Cmax, individual data",[8]; [14],353 ng/mL and 214 ng/mL and 233 ng/mL
same,"Tmax, individual data",[8]; [14],0.500 h
same,% Residual in liver microsome,[9]; 10 min,0.0%
same,% Residual in liver microsome,[9]; 20 min,0.0%
same,% Residual in liver microsome,[9]; 30 min,0.0%
same,% Residual in liver microsome Individual value,[9]; 10 minutes,0.0%
same,% Residual in liver microsome Individual value,[9]; 20 minutes,0.0%
same,% Residual in liver microsome Individual value,[9]; 30 minutes,0.0%
same,% Residual in liver microsome,[10]; 10 min,0.1%
same,% Residual in liver microsome,[10]; 20 min,0.1%
same,% Residual in liver microsome,[10]; 30 min,0.0%
same,% Residual in liver microsome Individual value,[10]; 10 minutes,0.1%
same,% Residual in liver microsome Individual value,[10]; 20 minutes,0.1%
same,% Residual in liver microsome Individual value,[10]; 30 minutes,0.0% and 0.1%
same,% Residual in plasma,[11]; 10 min,82.9%
same,% Residual in plasma,[11]; 20 min,71.8%
same,% Residual in plasma,[11]; 30 min,55.5%
same,% Residual in plasma Individual value,[11]; 10 minutes,81.5% and 84.4%
same,% Residual in plasma Individual value,[11]; 20 minutes,71.3% and 72.3%
same,% Residual in plasma Individual value,[11]; 30 minutes,56.3% and 54.7%
same,stability in liver microsomes (in words),[12]; ferret liver microsomes,stable
same,% Residual in liver microsome,[12]; 10 min,98.5%
same,% Residual in liver microsome,[12]; 20 min,98.1%
same,% Residual in liver microsome,[12]; 30 min,90.8%
same,% Residual in liver microsome Individual value,[12]; 10 minutes,97.0% and 99.9%
same,% Residual in liver microsome Individual value,[12]; 20 minutes,98.3% and 97.9%
same,% Residual in liver microsome Individual value,[12]; 30 minutes,87.4% and 94.2%
